# According to patent US20210161130A1, “COMPOSITIONS FOR ATTRACTING PESTS AND USES THEREOF” (DOMOBIOS, priority 2018, published 2021):
# Key:
# Type in all cases: in vivo
# [1] = test system: Dermatophagoides pteronyssinus; assay: Two-choice bioassay (vegetable fiber support discs), attraction of mites
# Procedure: (§1) A composition comprising menthone was prepared by diluting liquid menthone with a density of 0.894 (mixture of stereoisomers L-menthone and D-isomenthone, with 98% purity, from Alfa Aesar, Haverhill, USA) in water to obtain a concentration of 0.1 μl/mL (i.e., 10^−4 L/L), corresponding to a concentration of about 0.0894 mg/mL or a concentration of about 0.00894% (w/v). Said composition has a molar concentration of menthone of about 0.58 mM.
# (§2) Compositions comprising menthone at different concentrations were prepared by serial dilutions in water of the composition comprising menthone at 10^−4 L/L (from 10^−4 L/L to 10^−8 L/L, i.e., from about 0.0894 mg/mL to about 8.94 ng/mL) and their capacity to attract acarids was tested.
# (§3) A composition comprising peppermint oil (also known as essential oil of Mentha piperita), which itself comprises menthone, was prepared by diluting peppermint oil with a density of 0.898 g/mL (natural peppermint oil from Mentha piperita L., Sigma, St Louis, USA) in water to obtain a concentration of 0.1 μl/mL (i.e., 10^−4 L/L), corresponding to a concentration of about 0.0898 mg/mL or a concentration of about 0.00898% (w/v). Compositions comprising peppermint oil at different concentrations were prepared by serial dilutions in water of the composition comprising peppermint oil at 10^−4 L/L (from 10^−4 L/L to 10^−6 L/L, i.e., from about 0.0898 mg/mL to about 0.898 μg/mL) and their capacity to attract acarids was tested.
# (§4) Responses of Dermatophagoides spp. to compositions comprising menthone, either alone (i.e., isolated) or within peppermint oil, were tested in a two-choice bioassay as described in Otieno et al., 1985. Said bioassay comprised two support discs made of vegetable fiber (with a diameter of 1.7 cm), i.e., a test support and a control support, placed in a Petri dish (with a diameter of 6 cm) kept at 20-28° C. in the dark at 30% humidity. Compositions comprising menthone, either alone (i.e., isolated) or within peppermint oil, (50 μL or less) were applied via a syringe to the test support. The control support was loaded with water only. An appropriate number of mites were placed in the center of the dish, equidistant from the test support and the control support. The bioassay system was then left for 24 hr or less at 20-28° C. in the dark at 30% humidity before a count of the mites assembled on the test support and on the control support was made. Several replicates were run for each test.
# (§5) Statistical significance was assessed using a Fisher's exact test.
# Dermatophagoides farinae [2] = assay: as above
# Procedure: as §1, §2, §3, §4, §5
# [3] = test system: Dermatophagoides pteronyssinus; assay: Simulated use test, infested cushion covered with sprayed sheet; conditions: menthone 10^−6 L/L, 6 sprays on sheet, 1 h, cushion infested with three mite species, N = 3
# Procedure: (§6) A composition comprising menthone at a concentration of 10^−6 L/L was prepared by diluting 1 μL liquid menthone as described hereinabove (mixture of stereoisomers L-menthone and D-isomenthone, with 98% purity, from Alfa Aesar, Haverhill, USA) in 1 L of water. Hereafter, said composition is referred to as “compositions comprising menthone alone” or “compositions comprising menthone”.
# (§7) A composition comprising peppermint oil at a concentration of 10^−5 L/L was prepared by diluting 10 μL peppermint oil (natural peppermint oil from Mentha piperita L., Sigma, St Louis, USA) as described hereinabove in 1 L of water. Hereafter, said composition is referred to as “composition comprising menthone within peppermint oil” or “composition comprising peppermint oil”.
# (§8) In order to simulate real-life utilization of the composition for attracting pests of the invention, a common household furniture such as a cushion was infested with living mites and treated with a composition comprising menthone at a concentration of 10^−6 L/L (corresponding to a concentration of menthone of about 9×10^−4 mg/mL) or with a composition comprising peppermint oil at a concentration of 10^−5 L/L (corresponding to a concentration of peppermint oil of about 9×10^−3 mg/mL). As described in Japanese application JP2000336007 and in U.S. Pat. No. 6,415,545, the treatment consisted in laying a sheet on the infested household furniture and spraying the compositions to be tested over it. The number of attracted and unattracted mites was then counted to evaluate the efficacy of the tested composition. All the tests were run at 20-25° C. and 30-35% relative humidity, conditions normally found in households.
# (§9) Brand new cushions (43×30×6 cm, Tom&Co) were infested with 400 Tyrophagus putrescentiae, 100 Dermatophagoides farinae and 100 Dermatophagoides pteronyssinus. The proportion of each species respected the average composition of natural mite populations that can be found in a pet basket: ⅔ of storage mites, ⅓ of house dust mites. Small pieces of dry dog food were spread over the cushions as a nourishment for mites. After the infestation, mites were allowed to settle down for 15 hours.
# (§10) After 15 hours, a dark sheet was placed over the cushion to be treated. The size of the sheet was sufficient to cover the entire upper surface of the cushion (43×30 cm). The sheet was sprayed 6 times (total volume sprayed about 4 ml) with a composition comprising menthone, either alone (i.e., isolated) or within peppermint oil, or with water (control), keeping the bottle at a distance of about 30 cm from the sheet to be sprayed. A dry control was also used, corresponding to an untreated sheet, i.e., a sheet that was not sprayed. Sprays were evenly distributed in order to cover the totality of the sheet. The sheet was left in place for 1 h. 3 replicates were run with the composition comprising menthone, either alone (i.e., isolated) or within peppermint oil, and 3 replicates were run with the control.
# (§11) In order to determine the number of mites within an infested place, the usual method is to vacuum the infested place (Wassenaar 1988). Each sheet was vacuumed for 2 minutes using a special filter (as described in the European patent application EP0630478) that retains the collected dust. The dust sample was then analyzed (see Step 4) in order to determine the number of mites attracted by the composition comprising menthone, either alone (i.e., isolated) or within peppermint oil. Similarly, after removal of the sheet, each cushion was vacuumed to determine the number of remaining mites (i.e., the number of mites that were not attracted by the composition comprising menthone, either alone (i.e., isolated) or within peppermint oil). The relative proportion of mites into the sheet and into the cushion determined the efficacy of the treatment (see Step 4). […]
# Tyrophagus putrescentiae [4] = assay: as above; conditions: menthone 10^−6 L/L, 6 sprays on sheet, 1 h, cushion infested with three mite species, N = 3
# Procedure: as §6, §7, §8, §9, §10, §11
# Dermatophagoides farinae [5] = assay: as above; conditions: menthone 10^−6 L/L, 6 sprays on sheet, 1 h, cushion infested with three mite species, N = 3
# Procedure: as §6, §7, §8, §9, §10, §11
# Total number of mites = assay: as above
# Procedure: as §6, §7, §8, §9, §10, §11
# Tyrophagus putrescentiae [6] = assay: Two-choice bioassay (filter paper rectangles), attraction of mites
# Procedure: as §1, §2, §3
# The experimental protocol was inspired by the quantitative choice bioassay run by Synder et al., in 1993. Said bioassay consisted of two rectangles of filter paper of equal dimensions, positioned so as to be parallel to each other and less than 2 cm apart in a petri dish with a 6 cm diameter. 10 μL microliters of the composition comprising menthone, either alone (i.e., isolated) or within peppermint oil, were loaded on one rectangle and 10 μL of solvent (i.e., water) were loaded on the other as a control. After the solvent evaporated, a small strip of filter paper was used to bridge the rectangles. A group of 30-40 mites was then transferred to the middle of the bridge and their movements were observed. The rectangle for which they exited the bridge was recorded. Each assay comprised two sets of rectangles of filter paper connected with a bridge, with the composition comprising menthone, either alone (i.e., isolated) or within peppermint oil, loaded on opposing rectangles in each set (e.g., rectangle on the left in the first set, and rectangle on the right in the second set). Data were submitted to Fisher analysis.
# as §5
# [7] = composition comprising menthone 10^−4 L/L in water vs water
# [8] = composition comprising menthone 10^−5 L/L in water vs water
# [9] = composition comprising menthone 10^−6 L/L in water vs water
# [10] = composition comprising menthone 10^−7 L/L in water vs water
# [11] = composition comprising menthone 10^−8 L/L in water vs water
compound,measurement,setting,value
CC1CCC(C(C)C)C(=O)C1 (stereo not shown) [menthone],Mean efficiency,[1]; [7],42%
same,Mean efficiency,[1]; [8],50%
same,Mean efficiency,[1]; [9],67%
same,Mean efficiency,[1]; [10],42%
same,Mean efficiency,Dermatophagoides farinae [2]; [7],41%
same,Mean efficiency,Dermatophagoides farinae [2]; [8],40%
same,Mean efficiency,Dermatophagoides farinae [2]; [9],62%
same,Mean efficiency,Dermatophagoides farinae [2]; [10],49%
same,Mean efficiency,Dermatophagoides farinae [2]; [11],51%
same,Efficacy (mites attracted out of the cushion),[3],44%
same,Efficacy (mites attracted out of the cushion),[3]; listed as Menthone,44%
same,Efficacy (mites attracted out of the cushion),Tyrophagus putrescentiae [4],69%
same,Efficacy (mites attracted out of the cushion),Tyrophagus putrescentiae [4]; listed as Menthone,69% (±8%)
same,Efficacy (mites attracted out of the cushion),Dermatophagoides farinae [5],47%
same,Efficacy (mites attracted out of the cushion),Dermatophagoides farinae [5]; listed as Menthone,47% (±6%)
same,more mites attracted out of the infested cushion compared to the control,"Total number of mites; menthone 10^−6 L/L vs water control, Fisher's exact test, p-value=0.0006",21%
same,Efficacy (mites attracted out of the cushion),"Total number of mites; menthone 10^−6 L/L, 6 sprays on sheet, 1 h, cushion infested with three mite species, N = 3",54% (±5%)
same,Mean efficiency,Tyrophagus putrescentiae [6]; [7],50%
same,Mean efficiency,Tyrophagus putrescentiae [6]; [8],47%
same,Mean efficiency,Tyrophagus putrescentiae [6]; [9],57%
same,Mean efficiency,Tyrophagus putrescentiae [6]; [10],53%
same,Mean efficiency,Tyrophagus putrescentiae [6]; [11],49%
